Measured values reported in patent publication US12459951B2, “Compounds that interact with RAS superfamily proteins for treatment of cancers, inflammatory diseases, rasopathies, and fibrotic disease” (SHY Therapeutics, LLC, priority 2022, dated 2025).

Assays:
[1] = system: Smad2/Smad3 phosphorylation; assay: Phospho-Smad2/3 Inhibition Assay (western blot), Panc-1; type: cell-based, human; settings: at 10 μM, Panc-1 pancreatic cancer cell line; starred symbols = activation
Method in brief: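 Panc-1 cells (KRas G12D), starved overnight in 0.5% FBS, treated 3 h at 37° C with compound at 10 μM final (0.3% DMSO) or serial dilutions for IC50, then stimulated with 10 ng/ml TGF-b1 for 1 h. Phospho-Smad2 (Ser465/467) and phospho-Smad3 (Ser423/425) detected by western blot.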

KRas G12C mutant = assay: Ras GTP Binding Domain Inhibition Assay (Ras Superfamily Assay); settings: 20 μM compound; for KRas G12C mutant + SOS: % inh.: with SOS; for KRas G12C mutant: % inh.: without SOS
Method in brief: (§1)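 Binding of 100 nM fluorescent GTP (Cy3 or Cy5, 45 min, room temperature) was read after washes from plate-captured His-tagged protein. Beforehand, compounds at 20 μM or in dilution series for IC50 sat 3 h on the protein in Tris buffer pH 7.4 or 7.0 with 1% DMSO, Sos GEF optionally added for the last hour.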

KRas G12D mutant = assay: as above; settings: 20 μM compound; for KRas G12D mutant + SOS: % inh.: with SOS; for KRas G12D mutant: % inh.: without SOS
Method in brief: as §1

KRas Q61H mutant = assay: as above; settings: 20 μM compound; for KRas Q61H mutant + SOS: % inh.: with SOS; for KRas Q61H mutant: % inh.: without SOS
Method in brief: as §1

KRas wild type = assay: as above; settings: 20 μM compound; for KRas wild type + SOS: % inh.: with SOS; for KRas wild type: % inh.: without SOS
Method in brief: as §1

Rac-1 = molecular target: T1, Rac-1 (Homo sapiens, UniProt P63000); assay: as above; settings: read-out: Rac-1: % inh.
T1 construct: made in house
Method in brief: as §1

Rho-A = molecular target: T2, Rho-A (Homo sapiens, UniProt P61586); assay: as above; settings: read-out: Rho-A: % inh..
T2 construct: made in house
Method in brief: as §1

T2 sequence (P61586 whole entry): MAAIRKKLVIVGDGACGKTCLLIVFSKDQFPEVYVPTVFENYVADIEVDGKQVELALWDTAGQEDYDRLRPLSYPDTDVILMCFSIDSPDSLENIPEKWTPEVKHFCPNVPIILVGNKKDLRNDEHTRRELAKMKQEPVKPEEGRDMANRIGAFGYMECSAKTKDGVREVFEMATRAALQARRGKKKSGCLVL

CO[C@H]1CC[C@@H](Nc2nc(-c3ccccn3)nn3cc(-c4ccn(C(C)C)n4)c(-c4ccccc4)c23)C1 (racemic) [Compound 24, rac 6-(1-Isopropyl-1H-pyrazol-3-yl)-N-((1R,3S)-3-methoxycyclopentyl)-5-phenyl-2-(pyridin-2-yl)pyrrolo[2,1-f][1,2,4]triazin-4-amine]
0 (0 = 0% inhibition): KRas G12C mutant + SOS: % inh. (KRas G12C mutant) | KRas G12C mutant: % inh. (KRas G12C mutant) | KRas G12D mutant + SOS: % inh. (KRas G12D mutant) | KRas G12D mutant: % inh. (KRas G12D mutant) | KRas Q61H mutant + SOS: % inh. (KRas Q61H mutant) | KRas Q61H mutant: % inh. (KRas Q61H mutant) | KRas wild type + SOS: % inh. (KRas wild type) | KRas wild type: % inh. (KRas wild type)
0%: inhibition at 20 µM (Rac-1) | inhibition at 20 µM (Rho-A)
B (B = 26-45% inhibition): % inh of Smad2/3 phosphorylation in Panc-1 [1]

COc1ccnc(Nc2nc(-c3nccn3C)nn3cc(-c4ccn(C(C)C)n4)c(C)c23)n1 [Compound 53, 6-(1-Isopropyl-1H-pyrazol-3-yl)-N-(4-methoxypyrimidin-2-yl)-5-methyl-2-(1-methyl-1H-imidazol-2-yl)pyrrolo[2,1-f][1,2,4]triazin-4-amine]
76 to 100%: inhibition at 20 µM (Rac-1) | inhibition at 20 µM (Rho-A)
B (B = 26-45% inhibition): % inh of Smad2/3 phosphorylation in Panc-1 [1]
C (C = 50-75% inhibition): KRas G12C mutant + SOS: % inh. (KRas G12C mutant) | KRas G12C mutant: % inh. (KRas G12C mutant) | KRas G12D mutant + SOS: % inh. (KRas G12D mutant) | KRas G12D mutant: % inh. (KRas G12D mutant) | KRas wild type + SOS: % inh. (KRas wild type) | KRas wild type: % inh. (KRas wild type)
D (D = 76-100% inhibition): KRas Q61H mutant + SOS: % inh. (KRas Q61H mutant) | KRas Q61H mutant: % inh. (KRas Q61H mutant)

Cn1ccnc1-c1nc(OCCN2CCCC2)c2c(-c3ccccc3)ccn2n1 [Compound 41, 2-(1-Methyl-1H-imidazol-2-yl)-5-phenyl-4-(2-(pyrrolidin-1-yl)ethoxy)pyrrolo[2,1-f][1,2,4]triazine]
A* (A* = 1-25% activation): % inh of Smad2/3 phosphorylation in Panc-1 [1]
0%: inhibition at 20 µM (Rac-1) | inhibition at 20 µM (Rho-A)
A (A = 1-25% inhibition): KRas G12D mutant + SOS: % inh. (KRas G12D mutant) | KRas wild type: % inh. (KRas wild type)
0 (0 = 0% inhibition): KRas G12C mutant + SOS: % inh. (KRas G12C mutant) | KRas G12C mutant: % inh. (KRas G12C mutant) | KRas G12D mutant: % inh. (KRas G12D mutant) | KRas Q61H mutant + SOS: % inh. (KRas Q61H mutant) | KRas Q61H mutant: % inh. (KRas Q61H mutant) | KRas wild type + SOS: % inh. (KRas wild type)

CCn1ccc(-c2cn3nc(-c4nccn4C)nc(Nc4cc(OC)ncn4)c3c2C)n1 [Compound 64, 6-(1-Ethyl-1H-pyrazol-3-yl)-N-(6-methoxypyrimidin-4-yl)-5-methyl-2-(1-methyl-1H-imidazol-2-yl)pyrrolo[2,1-f][1,2,4]triazin-4-amine]
D (D = 76-100% inhibition): KRas G12C mutant: % inh. (KRas G12C mutant) | KRas G12D mutant + SOS: % inh. (KRas G12D mutant) | KRas G12D mutant: % inh. (KRas G12D mutant) | KRas Q61H mutant + SOS: % inh. (KRas Q61H mutant) | KRas Q61H mutant: % inh. (KRas Q61H mutant) | KRas wild type + SOS: % inh. (KRas wild type) | KRas wild type: % inh. (KRas wild type)
C (C = 50-75% inhibition): KRas G12C mutant + SOS: % inh. (KRas G12C mutant)
A (A = 1-25% inhibition): % inh of Smad2/3 phosphorylation in Panc-1 [1]
76 to 100%: inhibition at 20 µM (Rac-1) | inhibition at 20 µM (Rho-A)

Cc1c(-c2ccn(C(C)C)n2)cn2nc(-c3nccn3C)nc(Nc3ccn(C)n3)c12 [Compound 61, 6-(1-Isopropyl-1H-pyrazol-3-yl)-5-methyl-2-(1-methyl-1H-imidazol-2-yl)-N-(1-methyl-1H-pyrazol-3-yl)pyrrolo[2,1-f][1,2,4]triazin-4-amine]
76 to 100%: inhibition at 20 µM (Rac-1) | inhibition at 20 µM (Rho-A)
D (D = 76-100% inhibition): KRas G12C mutant + SOS: % inh. (KRas G12C mutant) | KRas G12C mutant: % inh. (KRas G12C mutant) | KRas G12D mutant + SOS: % inh. (KRas G12D mutant) | KRas G12D mutant: % inh. (KRas G12D mutant) | KRas Q61H mutant + SOS: % inh. (KRas Q61H mutant) | KRas Q61H mutant: % inh. (KRas Q61H mutant) | KRas wild type + SOS: % inh. (KRas wild type) | KRas wild type: % inh. (KRas wild type)
B (B = 26-45% inhibition): % inh of Smad2/3 phosphorylation in Panc-1 [1]
